From ChEMBL document CHEMBL5729239, “Aryl, heteroaryl, and heterocyclic compounds for treatment of immune and inflammatory disorders” (2022)

Target: Complement factor D (Homo sapiens, UniProt P00746)
Assay: Human Factor D Assay: Human Factor D (purified from human serum, Complement Technology, Inc.) at 80 nM final concentration is incubated with test compound at various concentrations for 5 min at room temperature in 50 mM Tris, 1M NaCl, pH 7.5. A synthetic substrate Z-L-Lys-SBzl and DTNB (Ellman's reagent) are added to final concentrations of 100 μM each. […] IC50 values are calculated by nonlinear regression of complement Factor D reaction rates as a function of test compound concentration.

Complement factor D, sequence (P00746 whole entry): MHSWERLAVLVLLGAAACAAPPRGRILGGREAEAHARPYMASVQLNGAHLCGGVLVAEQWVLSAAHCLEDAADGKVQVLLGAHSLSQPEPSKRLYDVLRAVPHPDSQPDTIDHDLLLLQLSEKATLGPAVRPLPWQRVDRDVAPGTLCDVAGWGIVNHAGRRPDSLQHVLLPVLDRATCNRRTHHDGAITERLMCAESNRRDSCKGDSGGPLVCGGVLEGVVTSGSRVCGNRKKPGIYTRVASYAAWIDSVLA

## Cc1cccc(CC(O)[C@@H]2C[C@@H](F)CN2C(=O)Cn2cc(C(N)=O)c3cc(-c4cnc5cc(C)nn5c4)ccc32)n1 (stereo partly specified)
  IC50: > 10000 nM

## CC(=O)c1nn(CC(=O)N2C[C@H](F)C[C@H]2C(=O)NCCOC(F)(F)F)c2ccc(-c3cnc(C)nc3)cc12
  IC50: < 1000 nM

## NC(=O)c1cc(-c2ccco2)n(CC(=O)N2C[C@H](F)C[C@H]2C(=O)Nc2cccc(Br)n2)n1
  IC50: < 1000 nM

## CC(=O)c1nn(CC(=O)N2C[C@H](F)C[C@H]2C(=O)NCCC(C)(C)C)c2ccc(-c3cnc(C)nc3)cc12
  IC50: < 1000 nM

## CC(=O)c1nn(CC(=O)N2C[C@H](F)C[C@H]2C(=O)O)c2ccc(-c3cnc(C)nc3)cc12
  IC50: > 10000 nM

## CC(=O)c1nn(CC(=O)N2C[C@H](F)C[C@H]2C(=O)Nc2cccc(-c3ccccc3Cl)c2F)c2ccc(N3C[C@H]4CCCC[C@H]4C3)cc12
  IC50: < 1000 nM
